The record followed here is patent US20090180958A1, “Diagnostic and therapeutic agents” (Karyon-CTT Ltd., priority 2005, published 2009).

The test system of series [1] is A549, NCI-H23, NCI-H520, NCI-H460, C8161/M1, HeLa, NIH3T3, E10V, SVEC4-10 cell lines. Put plainly: Cytotoxicity assay (MTT). Format: cell-based. The settings on record: 50 μg/ml and 500 μg/ml; 24 h, 48 h (72 h); all nine tested cell lines. On the procedure:
In this assay cell lines were exposed to two different concentrations (50 μg/and 500 μg/ml) of IS257 targeting unit (described in Example 3) for two to three days to test the toxicity of the peptides. The measurement of cell viability was done with MTT (Thiazolyl blue, Sigma M-5655 ) tetrazolium salt. MTT is cleaved to water-insoluble formazan dye by the “succinate-tetrazolium reductase” system which is active only in viable cells. After formazan was solubilized by 10% SDS-0.01 M HCl, it was quantified in an ELISA spectrometer (ThermoLabsystems Multiscan EX) at 560 nm. CuSAO2 [trans-bis(salicylaldoximato) copper(II)] (Elo HO, Lumme PO., 1985) 7.5 μg/ml was used as a positive control for 100% toxicity.
Procedure. Cells were trypsinized from the cell culture dish (ø9 cm) with 1 ml of TE for 1-5 minutes and moved to a 50 ml Falcon tube. […]
Then 40 μl of IS257 targeting unit in appropriate medium were added to the wells in two concentrations, so that final concentrations were 50 μg/ml and 500 μg/ml, and the volume of the wells was raised back to 100 μl. […] The next day the cell morphology was analyzed with a microscope. […]
The next day, the MTT assay described above was performed. The viable count (v.c.) was calculated as:
Average toxicated cell absorbance−Average DMEM absorbance=Viable count Average living cell absorbance−Average DMEM absorbance […]

The test system of the next series is A549 cells. Description: Fluorescent targeting agent staining of fixed cells. Format: cell-based, human. Particulars: 500 μg/ml in PBS, pH 7.4, added prior to F5M-A49.
Series [2] can be described thus: In vivo cytotoxicity (behaviour after i.v. injection). Also noted: species or system Athymic nude mice. Particulars: 1 mg i.v. tail vein; observed 30 min after injection and 15 min on following day. As for the experimental part:
The behaviour of mice was observed during 30 min right after injection and during 15 min on the following day (comparison to non-injected mouse). Three mice were taken into this study (plus non-injected controls).

The nature of series [3]: Immunogenicity: immunization of mice and serological antibody ELISA. The format is in vivo, balb/c female mice. The settings on record: i.p. 50 μg day 0, 25 μg days 14, 28, 56, 84; end point bleed day 98, serum 1:40; HP201 as capture antigen. On the procedure:
Mice and immunization. Female 6- to 8-week old balb/c female mice (Harlan Laboratories, The Netherlands) were used in this study. The targeting unit IS257 (described in Example 3) was dissolved in sterile saline at 0.5 mg/ml and 0.25 mg/ml concentrations. A group of five mice were initially immunized intraperitoneally with 50 μg of targeting unit on day 0. The following immunizations were done with 25 μg of targeting unit on days 14, 28, 56 and 84. Mice were bled from the tail vein on day 0 (preimmune bleed) and thereafter on days 42, 70, and 98 (end point bleed). Blood was collected in tubes and the serum was clarified by centrifugation at 3500 RPM for 7 minutes. […]
Serological antibody assay. […] The wells were washed five times with washing buffer (PBS containing 0.05% Tween20) before incubating for 1 h at 37° C. with 150 μl of a 1:1000 dilution of horseradish peroxidase conjugated Affinipure of goat anti-mouse IgG+IgM (Jackson ImmunoResearch Europe Ltd) and detected with a DAB (3,3′-diaminobentzidine) substrate kit for peroxidase (Vector Laboratories).
As a positive control the horseradish peroxidase conjugated Affinipure goat anti-mouse IgG+IgM (10 μg/ml) was used to coat the wells of Reacti-Bind Maleimide activated clear strip plate overnight at 4° C. […] The plates were read at 405 nm using an ELISA plate reader (ThermoLabsysrems Multiskan EX).
In general terms: An ELISA detects its analyte on a solid surface through an enzyme-linked reagent.

Procedure for A549 cells: A549 cells and HeLa cells (described in Example 18) were grown on glass slides, washed with PBS and then fixed with methanol. The fluorescent targeting agent F5M-A49 (described in Example 10) was used to stain these cells as follows: Cells were first blocked with blocking buffer (1.0% BSA, 0.05% Tween20 in PBS, pH 7.4) for one hour at 20° C. The cells on the glass slides were incubated with 20 μl of F5M-A49 targeting agent (50 μg/ml in PBS, pH 7.4). As control, binding of F5M-A49 was competed with 20 μl of IS257 targeting unit (free peptide described in Example 3), 500 μg/ml in PBS, pH 7.4) prior to addition of the targeting agent. As negative controls, cells not incubated with any targeting agent were used. After the staining the cells were mounted on object glasses with mountex (Histolab Products Ltd). After this cells were viewed under a fluorescent microscope (Carl Zeiss Microscopy, Jena, Germany).

Turning to Ac-ARRPKLD-NH2 [IS257], the “toxicity to cell lines (viable count, MTT)” value in series [1] is “non-toxic”. In addition, in the series with A549 cells, the “competition of F5M-A49 binding to A549 cells by free peptide” value is reported as “blocked”. The “toxic effect on mice (behaviour)” value in series [2] is “did not have any toxic effect”. Further, in series [3], the “immunogenicity (anti-targeting unit antibodies in serum, ELISA, absorbance at 405 nm)” value is on record as “non-immunogenic”.
